Experimental data as given in PubChem BioAssay (NCI).
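Briefly, cells in 96-well plates were exposed to five compound concentrations for 48 h, and endpoints were estimated by linear interpolation. TGI: total growth inhibition.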

Columns and labels:
Assay in all cases: DTP human tumour cell line panel, 48 h
786-0 renal = system: 786-0 renal
A498 renal = system: A498 renal
A549 NSCLC = system: A549 NSCLC
ACHN renal = system: ACHN renal
CAKI-1 renal = system: CAKI-1 renal
CCRF-CEM leukemia = system: CCRF-CEM leukemia
COLO 205 colon = system: COLO 205 colon
DLD-1 colon = system: DLD-1 colon
DMS 114 small cell lung = system: DMS 114 small cell lung
DMS 273 small cell lung = system: DMS 273 small cell lung
EKVX NSCLC = system: EKVX NSCLC
HCT-116 colon = system: HCT-116 colon
HCT-15 colon = system: HCT-15 colon
HL-60(TB) leukemia = system: HL-60(TB) leukemia
HOP-18 NSCLC = system: HOP-18 NSCLC
HOP-62 NSCLC = system: HOP-62 NSCLC
HOP-92 NSCLC = system: HOP-92 NSCLC
HT29 colon = system: HT29 colon
IGROV1 ovarian = system: IGROV1 ovarian
K-562 leukemia = system: K-562 leukemia
KM12 colon = system: KM12 colon
KM20L2 colon = system: KM20L2 colon
LOX IMVI melanoma = system: LOX IMVI melanoma
LXFL 529 NSCLC = system: LXFL 529 NSCLC
M14 melanoma = system: M14 melanoma
M19-MEL melanoma = system: M19-MEL melanoma
MALME-3M melanoma = system: MALME-3M melanoma
MOLT-4 leukemia = system: MOLT-4 leukemia
NCI-H226 lung = system: NCI-H226 lung
NCI-H23 lung = system: NCI-H23 lung
NCI-H460 lung = system: NCI-H460 lung
NCI-H522 lung = system: NCI-H522 lung
OVCAR-3 ovarian = system: OVCAR-3 ovarian
OVCAR-4 ovarian = system: OVCAR-4 ovarian
OVCAR-5 ovarian = system: OVCAR-5 ovarian
OVCAR-8 ovarian = system: OVCAR-8 ovarian
RPMI-8226 leukemia = system: RPMI-8226 leukemia
SF-268 CNS = system: SF-268 CNS
SF-295 CNS = system: SF-295 CNS
SF-539 CNS = system: SF-539 CNS
SK-MEL-2 melanoma = system: SK-MEL-2 melanoma
SK-MEL-28 melanoma = system: SK-MEL-28 melanoma
SK-MEL-5 melanoma = system: SK-MEL-5 melanoma
SK-OV-3 ovarian = system: SK-OV-3 ovarian
SN12C renal = system: SN12C renal
SNB-19 CNS = system: SNB-19 CNS
SNB-75 CNS = system: SNB-75 CNS
SNB-78 CNS = system: SNB-78 CNS
SW-620 colon = system: SW-620 colon
TK-10 renal = system: TK-10 renal
UACC-257 melanoma = system: UACC-257 melanoma
UACC-62 melanoma = system: UACC-62 melanoma
UO-31 renal = system: UO-31 renal

Measured: TGI

NC(CCCNCc1ccccc1O)C(=O)O (stereo not drawn)
> 100 µM: 786-0 renal | A498 renal | A549 NSCLC | ACHN renal | CAKI-1 renal | CCRF-CEM leukemia | COLO 205 colon | DLD-1 colon | DMS 114 small cell lung | DMS 273 small cell lung | EKVX NSCLC | HCT-116 colon | HCT-15 colon | HL-60(TB) leukemia | HOP-18 NSCLC | HOP-62 NSCLC | HOP-92 NSCLC | HT29 colon | IGROV1 ovarian | K-562 leukemia | KM12 colon | KM20L2 colon | LOX IMVI melanoma | LXFL 529 NSCLC | M14 melanoma | M19-MEL melanoma | MALME-3M melanoma | MOLT-4 leukemia | NCI-H226 lung | NCI-H23 lung | NCI-H460 lung | NCI-H522 lung | OVCAR-3 ovarian | OVCAR-4 ovarian | OVCAR-5 ovarian | OVCAR-8 ovarian | RPMI-8226 leukemia | SF-268 CNS | SF-295 CNS | SF-539 CNS | SK-MEL-2 melanoma | SK-MEL-28 melanoma | SK-MEL-5 melanoma | SK-OV-3 ovarian | SN12C renal | SNB-19 CNS | SNB-75 CNS | SNB-78 CNS | SW-620 colon | TK-10 renal | UACC-257 melanoma | UACC-62 melanoma | UO-31 renal
